Where no end group is shown, it is not given here.

In one assay the test system is HCMV strain AD169. In words: HCMV plaque formation assay in MRC-5 cells. The note with it: for inhibition of HCMV plaque formation as compared to the virus control: 10 micrograms per ml, 7-10 days.
Assay [1] relates to hepatitis B virus (HBV) ayw strain. Nature of the assay: HBV experimental assay system (HepG2-2.2.15, TaqMan PCR of secreted HBV DNA). The note with it: 10 micrograms per ml; HepG2-2.2.15 cells, six days. In kind it is cell-based. An excerpt: HepG2-2.2.15 is a stable cell line containing the hepatitis B virus (HBV) ayw strain genome (ATCC Cat. No. CRL-11997). Antiviral compounds blocking any late step of viral replication such as transcription, translation, pregenome encapsidation, reverse transcription, particle assembly and release can be identified and characterized using this cell line. In this assay, an active compound will reduce the production of secreted HBV from cells, measured by utilizing real time quantitative PCR (TaqMan) assay to directly and accurately measure HBV DNA copies.
HepG2-2.2.15 cells were plated in 96-well microtiter plates. After 16-24 hours the confluent monolayer of HepG2-2.2.15 cells was washed and the medium was replaced with complete medium containing test peptides—10 micrograms per ml—in duplicate. […] Six days following the initial administration of the peptides, the cell culture supernatants was collected, treated with pronase and DNAse and then used in a real-time quantitative TaqMan PCR assay. The PCR-amplified HBV DNA was detected in real-time by monitoring increases in fluorescence signals that result from the exonucleolytic degradation of a quenched fluorescence probe molecule that hybridizes to the mplified HBV DNA. […] Antiviral activity was calculated from the reduction in HBV DNA levels (% virus control). […]
In general terms: Real-time PCR tracks product formation cycle by cycle.

The test system of a further assay is spleen cells. In words: Th1/Th2 cytokine profiling assay. In kind it is cell-based, Balb/c mice. As to conditions: 10 micrograms per ml; Ovalbumin restimulation, 72 hours.
The test system of assay [2] is Primary Human endothelial cells (HUVEC). Nature of the assay: Endothelial cell migration assay. In kind it is cell-based. As to conditions: 10 micrograms per ml, 22 hours, combination peptide 1:peptide 2 0.95 mole: 1.05 mole.
The test system of a further assay is HUVEC. Nature of the assay: Endothelial tube formation assay. In kind it is cell-based, human. As to conditions: 10 micrograms per ml, 20 hours, combination peptide 1:peptide 2 0.95 mole: 1.05 mole. An excerpt:
Positive control was vehicle only.

As to `Nc1nc(O)c2ncn(COC(CO)CO)c2n1` [Ganciclovir, reference compound], the “antiviral activity of positive control compound (HCMV)” value in the assay on HCMV strain AD169 (positive control, HCMV AD169) is “expected levels of antiviral activity”.
For “Cys-Ser-Arg-Ala-Arg-Lys-Gln-Ala-Ala-Ser-Ile-Lys-Val-Ala-Val-Ser-Ala-Asp-Arg-OH (CSRARKQAASIKVAVSADR-OH) [peptide 1]”, the “inhibition of HBV replication as compared to the virus control infection” value in assay [1] was determined as 22.1%. Moreover, in the assay with spleen cells, the “IFNγ spleen cells; TH1 response (% of control)” value is reported as 88.8 % of control, the “IL-2 spleen cells (% of control)” value was 66.8 % of control, the “IL-4 spleen cells; TH2 response (% of control)” value is 148.8 % of control and the “IL-5 spleen cells; TH2 response (% of control)” value is 64.5 % of control. Also, the “TNF-a spleen cells; TH1 response (% of control)” value in the assay on spleen cells is reported as 101.0 % of control. Moreover, in assay [2], the “inhibition of the migration of human endothelial cells” value was 32%. Further, the “inhibition of the tube formation of endothelial cells” value in the assay with HUVEC is on record as 30%. Also, the “inhibition of HCMV plaque formation as compared to the virus control” value with HCMV strain AD169 is given as “did not inhibit”.
Regarding “Pro-His-Pro-Phe-His-Leu-Phe-Val-Tyr-OH (PHPFHLFVY-OH) [peptide 2]”, the “inhibition of HBV replication as compared to the virus control infection” value in assay [1] was “no effect”. Moreover, in the assay with spleen cells, the “IFNγ spleen cells; TH1 response (% of control)” value is 76.6 % of control, the “IL-2 spleen cells (% of control)” value was 70.7 % of control, the “IL-4 spleen cells; TH2 response (% of control)” value is on record as 113.5 % of control and the “IL-5 spleen cells; TH2 response (% of control)” value is listed as 57.6 % of control. Besides, the “TNF-a spleen cells; TH1 response (% of control)” value in the assay on spleen cells was 111.8 % of control. Also, in assay [2], the “inhibition of the migration of human endothelial cells” value is 33%. Further, the “inhibition of the tube formation of endothelial cells” value in the assay on HUVEC was determined as 27%. Besides, the “inhibition of HCMV plaque formation as compared to the virus control” value with HCMV strain AD169 is reported as “did not inhibit”.
